# In ChEMBL document CHEMBL1140338, “Range and sensitivity as descriptors of molecular property spaces in dynamic QSAR analyses” (J Med Chem, 2005):
# What was measured:
# [1] = Binding affinity for alpha 1d adrenoceptor
# [2] = Binding affinity for alpha 1b adrenoceptor
# [3] = Binding affinity for alpha 1a adrenoceptor
smiles,measurement,setting,value
CCCC(=O)N1CCCN(c2nc(N)c3cc(OC)c(OC)cc3n2)CC1,pK,[1],9
same,pK,[2],9
same,pK,[3],9.3
COc1cccc2c1CC[C@H]1CN(CCn3c(=O)[nH]c4c(sc5cccnc54)c3=O)C[C@@H]21,pK,[1],9.01
same,pK,[2],8.16
same,pK,[3],9.66
COc1cc2nc(N3CCN(C(=O)c4ccco4)[C@H]4CCCC[C@H]43)nc(N)c2cc1OC,pK,[1],8.49
same,pK,[2],9.89
same,pK,[3],7.92
CC(C)(Cc1c[nH]c2ccc(Cl)cc12)NCCOc1ccccc1OCC1CC1,pK,[1],7.8
same,pK,[2],7.8
same,pK,[3],9.22
COc1cc2c(cc1O)C1Cc3ccc(OC)c(O)c3CN1CC2 (stereo unspecified),pK,[1],7.6
same,pK,[2],6.44
same,pK,[3],6.21
COc1cccc(OC)c1OCCNCC1CSc2ccccc2O1 (stereo unspecified),pK,[1],9.4
same,pK,[2],8.4
same,pK,[3],9.7
COc1ccccc1N1CCN(CCN(C(=O)C2CCCCC2)c2ccccn2)CC1,pK,[1],7.2
same,pK,[2],6.73
same,pK,[3],7.24
COc1ccccc1N1CCN(CCCCN2C(=O)c3ccccc3C2=O)CC1,pK,[1],9.1
same,pK,[2],7.82
same,pK,[3],8.7
COc1cc2nc(N3CCN(C(=O)C4COc5ccccc5O4)CC3)nc(N)c2cc1OC (stereo unspecified),pK,[1],8.4
same,pK,[2],9
O=C(CCCN1CCC2(CC1)C(=O)NCN2c1ccccc1)c1ccc(F)cc1,pK,[1],7.89
same,pK,[2],9.3
same,pK,[3],8.1
CC1=C(C(N)=O)[C@H](c2ccc([N+](=O)[O-])cc2)C(C(=O)NCCCCN2CCC(c3ccccc3)(c3ccccc3)CC2)=C(C)N1,pK,[1],6.4
same,pK,[2],6.48
same,pK,[3],8.72
C[C@H](Cc1cc2c(c(C(N)=O)c1)N(CCCO)CC2)NCCOc1ccccc1OCC(F)(F)F,pK,[1],8.7
same,pK,[2],7.7
same,pK,[3],10.4
COc1ccccc1N1CCN(CCN2C(=O)CC3(CCCC3)CC2=O)CC1,pK,[1],8.2
same,pK,[2],6.2
same,pK,[3],6.6
COc1ccccc1N1CCN(CCCNC(=O)c2cccc3c(=O)c(C)c(-c4ccccc4)oc23)CC1,pK,[1],8.6
same,pK,[3],9
COc1cc2nc(N3CCN(C(=O)C4CCCO4)CC3)nc(N)c2cc1OC (stereo unspecified),pK,[1],8.6
same,pK,[3],8.2
Cc1ccc(N(CC2=NCCN2)c2cccc(O)c2)cc1,pK,[1],8.1
same,pK,[2],8.1
same,pK,[3],8.8
CCC1=C(C(N)=O)[C@H](c2ccc([N+](=O)[O-])cc2)C(C(=O)NCCCN2CCC(c3ccccc3)(c3ccccc3)CC2)=C(COCCN)N1,pK,[1],6.4
same,pK,[2],6.49
same,pK,[3],9.19
COc1cc2nc(N3CCN(C(=O)COc4c(OC)cccc4C(C)C)CC3)nc(N)c2cc1OC,pK,[1],8.59
same,pK,[2],9.52
same,pK,[3],8.72
COC(=O)C1=C(C)NC(C)=C(C(=O)OCCCN2CCC(c3ccccc3)(c3ccccc3)CC2)[C@H]1c1cccc([N+](=O)[O-])c1,pK,[1],7
same,pK,[2],7.26
same,pK,[3],9.82
C[C@H](CN1CCN(c2cc(F)c(F)cc2F)CC1)N1C(=O)CC2(CCCC2)CC1=O,pK,[1],8.8
same,pK,[2],6.72
same,pK,[3],6.53
C=Cc1sc2ccc(Cl)c3c2c1CN(C)CC3,pK,[1],8.28
same,pK,[2],7.2
same,pK,[3],7.36
COc1ccccc1N1CCN(CCCNc2c(C)c(=O)n(C)c(=O)n2C)CC1,pK,[1],8
same,pK,[2],7.4
same,pK,[3],9.2
COC(=O)C1=C(C)NC(C)=C(C(=O)NCCCN2CCC(c3ccccc3)(c3ccccc3)CC2)C1c1ccc([N+](=O)[O-])cc1 (stereo unspecified),pK,[1],7.18
same,pK,[2],7.89
same,pK,[3],9.64
COc1c(C)c(C)c(O)c(C)c1CN(C)CCOc1cc(C)c(O)cc1C(C)C,pK,[1],8.92
same,pK,[2],8.92
same,pK,[3],9.4
Cc1c[nH]c(=O)n(CCCN2CCN(c3ccc(F)cc3OCC(F)(F)F)CC2)c1=O,pK,[1],7
same,pK,[2],7.1
same,pK,[3],9
COc1cccc(OC)c1OCCNCC1COc2ccccc2O1 (stereo unspecified),pK,[1],9.6
same,pK,[3],9.8
COc1cc2c(cc1OC)CN(c1cc(N)c3cc(OC)c(OC)cc3n1)CC2,pK,[1],10.4
same,pK,[2],10.1
same,pK,[3],10.4
O=C(NC1CCN(CCc2c[nH]c3ccccc23)CC1)c1ccccc1,pK,[1],6.8
same,pK,[2],7.4
same,pK,[3],8.4
COc1cc2nc(N(C)CCCNC(=O)C3CCCO3)nc(N)c2cc1OC (stereo unspecified),pK,[1],8.5
same,pK,[2],8
same,pK,[3],8
COC(=O)[C@H]1[C@H]2C[C@H]3c4[nH]c5ccccc5c4CCN3C[C@@H]2CC[C@@H]1O,pK,[1],6.6
same,pK,[2],6.29
same,pK,[3],6.85
